What was measured:
[1] = system: FSH-induced changes in ovarian follicular maturation; test: Immature Rat Test Procedure (FSH-induced organ wet weight); assay type: in vivo; details: immature rats, twice daily for three days with half-maximal dose of hFSH; for IC50 (mg/Kg) ovaries: ovarian wet weight; for IC50 (mg/Kg) uterus: uterine wet weight
Experimental: Immature Rat Test Procedure
In order to assess the ability of compounds to affect FSH-induced changes in ovarian follicular maturation in vivo, immature rats (18 days of age) are treated twice daily for three days with compound in the presence of a half-maximal dose of purified human FSH. Animals are treated via the i.p. or p.o. routes. On the fourth day following treatment, animals are euthanized and the ovaries, uterus and spleen (the spleen is a control tissue that should not respond to FHS stimulation) collected for wet weight determination. In each experiment animals treated with vehicle alone or FSH alone are used as negative and positive controls, respectively.

FSH receptor [2] = molecular target: T1, FSH receptor (Homo sapiens, UniProt P23945); test: In Vitro Bio-test Procedure of Agonists and Antagonists to the FSH Receptor (cAMP accumulation in CHO-3D2 cells); assay type: cell-based; set-up: expressed in transfected cells; host or cells: CHO-3D2 cells
T1 sequence (P23945 18-695): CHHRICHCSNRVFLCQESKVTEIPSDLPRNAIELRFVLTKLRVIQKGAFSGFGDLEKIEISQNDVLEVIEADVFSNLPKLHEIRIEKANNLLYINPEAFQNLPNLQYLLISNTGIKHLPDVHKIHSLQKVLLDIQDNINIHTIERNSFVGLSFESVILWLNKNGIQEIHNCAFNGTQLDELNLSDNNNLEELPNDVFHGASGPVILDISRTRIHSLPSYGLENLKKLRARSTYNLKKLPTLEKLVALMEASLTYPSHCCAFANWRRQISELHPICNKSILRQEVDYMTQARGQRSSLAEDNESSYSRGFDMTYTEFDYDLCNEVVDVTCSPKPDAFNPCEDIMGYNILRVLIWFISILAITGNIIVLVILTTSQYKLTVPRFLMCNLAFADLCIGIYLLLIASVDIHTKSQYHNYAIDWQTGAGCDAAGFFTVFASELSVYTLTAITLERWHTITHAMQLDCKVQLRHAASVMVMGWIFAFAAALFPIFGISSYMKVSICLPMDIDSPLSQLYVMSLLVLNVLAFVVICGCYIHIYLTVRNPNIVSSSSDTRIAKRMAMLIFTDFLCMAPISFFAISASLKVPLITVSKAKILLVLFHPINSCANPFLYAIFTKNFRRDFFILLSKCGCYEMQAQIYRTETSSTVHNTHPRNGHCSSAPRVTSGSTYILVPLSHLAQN
Experimental: In Vitro Bio-test Procedure of Agonists and Antagonists to the FSH Receptor
The compounds were subsequently diluted in sterile procedure medium (Optimem (Gibco/BRL, Grand Island, N.Y.)/0.1% BSA) prior to use in the bio-procedure.
Preparation of CHO-3D2 Cells; CHO-3D2 cells were plated into 96-well Nunc tissue culture plates at a density of 30,000 cells/well in DMEM/F12 medium (Gibco/BRL, Grand Island, N.Y.) supplemented with 5% Fetal Bovine Serum (Hyclone, Fetal Clone II), 2 mM L-glutamine and penicillin/streptomycin (100 U/mL). Cells were plated one day prior to performing the bio-procedure.
Procedure: On the day of procedure, the wells were washed two times with 100 ul/well of pre-warmed (37 deg C.) procedure medium. After aspirating the second wash, an additional 100 ul of procedure medium was added to each well and the cells pre-incubated for 30-45 minutes at 37 deg C. In a humidified incubator with 5%CO2/95% air. The cells were then challenged with varying dilutions of the test substance(s) in a 50 ul total incubation volume in procedure medium for 30 minutes at 37 deg C. in the humidified incubator. The challenge was terminated by the addition of 50 ul of 0.2 N HCl to each well. CAMP accumulation in the medium was measured by radioimmunoassay.
Test Groups: In the 96-well format, the plate is organized into 12 columns each containing 8 rows of wells. The plate was split in half to test a single compound in both agonist and antagonist mode on the same plate.
For agonist mode, compounds were tested using 5 different concentrations in a dose-response paradigm using one column as a control (challenge medium alone) in agonist mode.
The 96-well format allowed for the capability to test 4 columns of compound, using one of the remaining columns for negative control (challenge medium alone) and the other remaining column for ampositive control (ED20 of FSH alone).
The doses chosen to test each compound were extrapolated from the initial screening process (receptor binding data). Along with the test compounds, FSH was run in agonist mode using doses ranging from 0.1 ng/mL-1000 ng/mL as a postive control. Cytotoxicity of the compounds were screened by treating cells with the highest concentration of each compound used in the cAMP procedure for 30 minutes followed by washing of the cells 2 times with 100 ul PBS. The cells were then incubated for 5 min at 37 deg C. in the presence of 50 ug/mL Fluorescein diacetate and 20 ug/mL Propidium iodide in 100 ul PBS. The cells were washed two times with 100 ul PBS followed by examination of the cells under a fluorescence microscope using a 490 nm filter. Viable cells stained green throughout, while dead cells had red fluorescent nuclei.
Analysis of Results: cAMP accumulation was expressed as fmol/mL. […] Data were analyzed statistically by analysis of variance and significant differences between treatments and control determined by Dunnett's test. In antagonist mode, a Duncan's test was used.
Reference Compounds: Test compounds were compared to the effect of purified or recombinant human FSH.

FSH receptor [3] = molecular target: T1, FSH receptor; test: FSH Receptor Radioligand Membrane Binding Standard Pharmacological Test Procedure; set-up: expressed in transfected cells; details: [125I]FSH binding to membranes of CHO cells stably transfected with the human FSH receptor
In short: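 Membranes from CHO cells stably expressing human FSH receptor; compounds pre-incubated 15 min at room temperature, then [125I]FSH added (diluted to 200 pM before addition) for 2 h at room temperature in pH 7.2 Tris buffer with protease inhibitors and BSA. Bound radioactivity after filtration counted by gamma counter; non-specific binding defined with unlabelled human FSH.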

FSH receptor [4] = molecular target: T2, FSH receptor (Rattus norvegicus, UniProt P20395); details: literature report; cited from earlier work
T2 construct: endogenous in cells; host or cells: primary ovarian granulosa cells of DES-treated immature Sprague-Dawley rats
T2 sequence (P20395 18-692): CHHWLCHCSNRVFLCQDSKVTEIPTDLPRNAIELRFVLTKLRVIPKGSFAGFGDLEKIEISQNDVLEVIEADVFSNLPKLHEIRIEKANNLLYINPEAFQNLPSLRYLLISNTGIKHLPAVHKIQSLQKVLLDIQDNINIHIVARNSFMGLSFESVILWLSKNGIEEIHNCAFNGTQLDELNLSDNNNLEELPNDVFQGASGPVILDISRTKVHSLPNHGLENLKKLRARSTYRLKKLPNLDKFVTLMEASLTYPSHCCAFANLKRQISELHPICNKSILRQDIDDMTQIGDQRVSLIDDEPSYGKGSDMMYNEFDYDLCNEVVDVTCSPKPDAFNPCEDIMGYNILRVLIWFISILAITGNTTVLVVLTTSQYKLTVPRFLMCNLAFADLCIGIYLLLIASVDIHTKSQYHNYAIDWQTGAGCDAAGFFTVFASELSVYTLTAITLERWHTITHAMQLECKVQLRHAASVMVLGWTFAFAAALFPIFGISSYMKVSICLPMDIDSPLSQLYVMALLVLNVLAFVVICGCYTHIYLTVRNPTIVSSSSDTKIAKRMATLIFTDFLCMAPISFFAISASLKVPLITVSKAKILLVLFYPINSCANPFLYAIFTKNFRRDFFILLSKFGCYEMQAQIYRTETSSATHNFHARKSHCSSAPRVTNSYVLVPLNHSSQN

SMILES	IC50 (FSH receptor [2]) [µM]	IC50 (FSH receptor [3]) [µM]	other results
CCS(=O)(=O)c1ccc(C(=O)Nc2ccc(/C=C/c3ccc(NC(=O)c4ccc(S(=O)(=O)CC)cc4)cc3S(=O)(=O)OC(C)C)c(S(=O)(=O)OC(C)C)c2)cc1 [Example 27z, 2,2′-[(E)-1,2-Ethenediyl]bis[5-[[4-(ethylsulfonyl)benzoyl]amino]benzenesulfonic acid], Bis(1-methylethyl) Ester]			IC50 (mg/Kg) ovaries ([1]; po): >10 mg/kg; IC50 (mg/Kg) uterus ([1]; po): 10 mg/kg
CC(C)OS(=O)(=O)c1cc(NC(=O)c2ccc(S(C)(=O)=O)c([N+](=O)[O-])c2)ccc1/C=C/c1ccc(NC(=O)c2ccc(S(C)(=O)=O)c([N+](=O)[O-])c2)cc1S(=O)(=O)OC(C)C [Example 27m, 2,2′-[(E)-1,2-Ethenediyl]bis[5-[[(4-methylsulfonyl)-3-(nitro)-benzoyl]amino]benzenesulfonic Acid], Bis(1-methylethyl) Ester]			IC50 (mg/Kg) ovaries ([1]; po): 8.4 mg/kg; IC50 (mg/Kg) uterus ([1]; po): 7.9 mg/kg
CSc1ccc(C(=O)Nc2ccc(/C=C/c3ccc(NC(=O)c4ccc(SC)c(S(=O)(=O)N5CCOCC5)c4)cc3S(=O)(=O)OC(C)C)c(S(=O)(=O)OC(C)C)c2)cc1S(=O)(=O)N1CCOCC1 [Example 27k, 2,2′-[(E)-1,2-Ethenediyl]bis[5-[[4-(methylthio)-3-(4-morpholinylsulfonyl)benzoyl]amino]benzenesulfonic Acid], Bis(1-methylethyl) Ester]			IC50 (mg/Kg) ovaries ([1]; ip): 1.1 mg/kg; IC50 (mg/Kg) uterus ([1]; ip): 0.5 mg/kg; IC50 (mg/Kg) ovaries ([1]; po): 4.8 mg/kg; IC50 (mg/Kg) uterus ([1]; po): 1.9 mg/kg
COCCN(CCOC)S(=O)(=O)c1cc(C(=O)Nc2ccc(/C=C/c3ccc(NC(=O)c4ccc(OC)c(S(=O)(=O)N(CCOC)CCOC)c4)cc3S(=O)(=O)O)c(S(=O)(=O)O)c2)ccc1OC [Example 30o, 2,2′-[(E)-1,2-Ethenediyl]bis[5-[[3-[[bis(2-methoxyethyl)amino]sulfonyl]-4-methoxybenzoyl]amino]benzenesulfonic Acid]]	6.2	2.4	
Cc1ccc(C(=O)Nc2ccc(S(=O)(=O)O)c3cc(S(=O)(=O)O)cc(S(=O)(=O)O)c23)cc1NC(=O)c1cccc(NC(=O)Nc2cccc(C(=O)Nc3cc(C(=O)Nc4ccc(S(=O)(=O)O)c5cc(S(=O)(=O)O)cc(S(=O)(=O)O)c45)ccc3C)c2)c1 [suramin, Suramin Sodium]			inhibition of FSH binding to its receptor (FSH receptor [4]): inhibit FSH binding to its receptor
COCCOc1ccc(C(=O)Nc2ccc(/C=C/c3ccc(NC(=O)c4ccc(OC)c(S(=O)(=O)N5CCOCC5)c4)cc3S(=O)(=O)O)c(S(=O)(=O)O)c2)cc1 [Example 42, 5-[[4-(2-Methoxyethoxy)benzoyl]amino]-2-[(E)-2-[4-[[4-methoxy-3-(4-morpholinylsulfonyl)benzoyl]amino]-2-sulfo-phenyl]ethenyl]benzenesulfonic Acid]	2.7	6.9	
COc1ccc(C(=O)Nc2ccc(Sc3ccc(NC(=O)c4ccc(OC)c(S(=O)(=O)N5CCOCC5)c4)cc3S(=O)(=O)O)c(S(=O)(=O)O)c2)cc1S(=O)(=O)N1CCOCC1 [Example 33h, 2,2′-Thiobis[5-[[4-methoxy-3-(4-morpholinylsulfonyl)benzoyl]amino]benzenesulfonic Acid]]	67	23	
CCN(CC)S(=O)(=O)c1cc(C(=O)Nc2ccc(/C=C/c3ccc(NC(=O)c4ccc(OC)c(S(=O)(=O)N(CC)CC)c4)cc3S(=O)(=O)O)c(S(=O)(=O)O)c2)ccc1OC [Example 33c, 2,2′-[(E)-1,2-Ethenediyl]bis[5-[[3-[(diethylamino)sulfonyl]-4-methoxybenzoyl]amino]benzenesulfonic Acid]]	4.5	6.2	
COc1ccc(C(=O)Nc2ccc(/C=C/c3ccc(NC(=O)c4ccc(OC)c(S(=O)(=O)NCCN5CCOCC5)c4)cc3S(=O)(=O)O)c(S(=O)(=O)O)c2)cc1S(=O)(=O)NCCN1CCOCC1 [Example 30n]	5.5	1.8	

The next lines start with results.

IC50 (FSH receptor [2]) [µM]	IC50 (FSH receptor [3]) [µM]	SMILES	other results
1.2	2.9	NC(=O)CS(=O)(=O)c1ccc(C(=O)Nc2ccc(/C=C/c3ccc(NC(=O)c4ccc(S(=O)(=O)CC(N)=O)cc4)cc3S(=O)(=O)O)c(S(=O)(=O)O)c2)cc1 [Example 37b, 5-[[4-[(2-Amino-2-oxoethyl)sulfonyl]benzoyl]amino]-2-[(E)-2-[4-[[4-[(2-amino-2-oxoethyl)sulfonyl]benzoyl]amino]-2-sulfophenyl]ethenyl]-benzenesulfonic Acid]	
2.3	3.5	C=CCS(=O)(=O)c1ccc(C(=O)Nc2ccc(/C=C/c3ccc(NC(=O)c4ccc(S(=O)(=O)CC=C)cc4)cc3S(=O)(=O)O)c(S(=O)(=O)O)c2)cc1 [Example 32a]	
13	12	O=C(Nc1ccc(CCc2ccc(NC(=O)c3cccc(S(=O)(=O)N4CCOCC4)c3)cc2S(=O)(=O)O)c(S(=O)(=O)O)c1)c1cccc(S(=O)(=O)N2CCOCC2)c1 [Example 43d]	

Source: patent publication US6355633B1, “Aryl sulfonic acids and derivatives as FSH antagonists” (American Home Products Corporation, priority 1999, dated 2002)
